In US6706733B2, “Quinolinone derivative formulation and its production method” (Dainippon Ink and Chemicals, Inc., priority 1999, dated 2004):

Legend:
[1] = Absorption test in rats (plasma concentration after oral administration); format: in vivo, male SD rats; settings: for Cmax (maximum plasma concentration): 100 mg/kg single oral administration by gastric tube, suspended in 0.5% aqueous methyl cellulose, plasma by HPLC; for Cmax (maximum plasma concentration) / AUC (area under the plasma concentration vs. time curve): fasted male SD rats; for AUC (area under the plasma concentration vs. time curve): 100 mg/kg single oral administration, trapezoidal equation plus elimination rate constant; for absorption as compared with the α-form crystals: rats, oral 100 mg/kg, regardless of whether crushed or not
Experimental: A comparison of absorption into bodies of rats was conducted for each of the crystal forms and their crushed products of the quinolinone derivative represented with chemical formula (I). Furthermore, each of the crystal forms of the quinolinone derivative represented with chemical formula (I) were crushed using an automated agate mortar.
The following provides an explanation of the test method.
100 mg/kg of each sample were administered orally in a single administration using a gastric tube to 3 male SD rats (age 6 weeks) fasted for 16 hours. The samples were administered after suspending in 0.5% aqueous methyl cellulose solution and preparing to a concentration of […]. Following administration, blood samples were collected over time from the tail vein using heparin-treated glass tubes, and the quinolinone derivative concentrations of the resulting plasma were assayed by HPLC.
The maximum Plasma concentration (Cmax) and area under the plasma concentration vs. time curve (AUC) were determined from the assayed values of the quinolinone derivative at each blood sampling time.
Furthermore, Cmax was determined using measured values, while AUC was determined by calculating according to a trapezoidal equation until the time of measurement, and using the elimination rate constant after that time. The Cmax and AUC of each crystal form of the quinolinone derivative represented with chemical formula (I) are described as comparative examples.

[2] = Photostability test (6 months under direct sunlight, HPLC content); format: physicochemical; settings: room temperature; for stability with respect to light compared among crystal forms: 6 months direct sunlight; for Residual rate of quinolinone derivative: transparent sealed container, nitrogen, direct sunlight
Experimental: 0.5 g of each of the crystal forms of the quinolinone derivative represented with chemical formula (I) were filled into a transparent and sealed container in a nitrogen atmosphere, and were stored for 6 months under direct sunlight at room temperature.
The content of each crystal form of the quinolinone derivative represented with chemical formula (I) was assayed over time by HPLC followed by a comparison of stability.

[3] = storage period 0 days (100% prior to storage)

| SMILES | Cmax (maximum plasma concentration) [1] [ng/mL] | AUC (area under the plasma concentration vs. time curve) [1] [µg·h/mL] | stability with respect to light compared among crystal forms [2] | Residual rate of quinolinone derivative [2, 3] [%] | Residual rate of quinolinone derivative ([2]; storage period 1 month) [%] | Residual rate of quinolinone derivative ([2]; storage period 6 months) [%] | Residual rate of quinolinone derivative ([2]; storage period 15 days) [%] | absorption as compared with the α-form crystals [1] |
| --- | --- | --- | --- | --- | --- | --- | --- | --- |
| CCCCCCCCOc1c(O)c2ccc(NC(=O)/C=C/c3cc(OC)c(O)c(OC)c3)cc2n(C)c1=O [Crushed β-form crystals] | 67000 | 586 | – | – | – | – | – | – |
| CCCCCCCCOc1c(O)c2ccc(NC(=O)/C=C/c3cc(OC)c(O)c(OC)c3)cc2n(C)c1=O [Crushed δ-form crystals] | 63000 | 597 | – | – | – | – | – | – |
| CCCCCCCCOc1c(O)c2ccc(NC(=O)/C=C/c3cc(OC)c(O)c(OC)c3)cc2n(C)c1=O [Crushed α-form crystals] | 33000 | 253 | – | – | – | – | – | – |
| CCCCCCCCOc1c(O)c2ccc(NC(=O)/C=C/c3cc(OC)c(O)c(OC)c3)cc2n(C)c1=O [α-form crystals] | 10000 | 73 | relatively stable | 100 | 97.2 | 85.1 | 99.1 | – |
| CCCCCCCCOc1c(O)c2ccc(NC(=O)/C=C/c3cc(OC)c(O)c(OC)c3)cc2n(C)c1=O [Crushed γ-form crystals] | 65000 | 575 | – | – | – | – | – | – |
| CCCCCCCCOc1c(O)c2ccc(NC(=O)/C=C/c3cc(OC)c(O)c(OC)c3)cc2n(C)c1=O [γ-form crystals] | 38000 | 325 | relatively stable | 100 | 96.5 | 84.1 | 98.9 | superior absorption |
| CCCCCCCCOc1c(O)c2ccc(NC(=O)/C=C/c3cc(OC)c(O)c(OC)c3)cc2n(C)c1=O [β-form crystals] | 41000 | 375 | relatively stable | 100 | 96.8 | 84.5 | 98.7 | superior absorption |
| CCCCCCCCOc1c(O)c2ccc(NC(=O)/C=C/c3cc(OC)c(O)c(OC)c3)cc2n(C)c1=O [δ-form crystals] | 51000 | 512 | extremely unstable | 100 | 91.4 | 57.3 | 96.2 | superior absorption |
